Source: PMC8578629, “Photoactivated cell-killing amino-based flavylium compounds” (Scientific Reports, 2021)

Legend:
[1] = Oxygen singlet production by Singlet Oxygen Sensor Green assay; settings: for ^1O2 production: compound 25 μM, after white light irradiation 79.2 J cm^−2
Procedure: The production of singlet oxygen by the different amino-based compounds in solution was determined as follows: a stock solution of Singlet Oxygen Sensor Green was prepared at 5 mM in methanol (MeOH). Working solutions of the probe were prepared at 2 mM in 100 mM pH 7.5 Tris buffer and in 100 mM pH 7.5 Tris buffer with 10 mM of Sodium Azide. The compounds were then prepared at a stock concentration of 500 μM and the working solutions were prepared in 100 mM pH 7.5 Tris buffer and in 100 mM pH 7.5 Tris buffer with 10 mM of Sodium Azide. 1 μL of Singlet Oxygen Sensor Green working solutions and 100 μL of compounds solution were mixed to a final volume of 1000 μL (in 100 mM pH 7.5 Tris buffer or in 100 mM pH 7.5 Tris buffer with 10 mM of Sodium Azide). 100 μL of each solution was then added to a 96-well black plate and 100 μL of Deuterium Oxide was added for a final concentration of 1 μM Singlet Oxygen Sensor Green and 25 μM for the different amino-based compounds. The fluorescence was then registered in a spectrofluorometer using excitation/emission of 488/525 nm. After this procedure, the wells were irradiated with a white light source with a total of 79.2 J cm^−2, corresponding to a total irradiation time of 1 h (6 pulses of 10 min) and then, the fluorescence determined using the same excitation/emission pair. As a positive control, Methylene Blue was used at a final concentration of 10 μM. The oxygen singlet production methodology was performed in a dark room.

[2] = Molar absorption coefficient (ɛ) at 630 nm; type: physicochemical
Procedure: The molar extinction coefficient or molar absorption (ɛ), of all synthesized pigments was determined in three different solvents (ethanol, methanol and DMSO). For each pigment, in each solvent, a range of concentrations was prepared and then the spectrum of each solution was read. Finally, the respective absorbances (collected at 630 nm) were represented as a function of concentration and the ɛ value was taken from the slope value of the equation curve.

[3] = Fluorescence quantum yield by the absolute method (integrating sphere); type: physicochemical; settings: in DMSO
Procedure: Based on the absorbance maxima of the different compounds (Fig. S2), the measurement of the quantum yield (QY) of the synthesized flavylium derivatives was performed using a calibrated Quantaurus-QY stand-alone integrating sphere setup C11347-11 (Hamamatsu Photonics, Hamamatsu, Japan) equipped with an integration sphere, a monochromator, a spectrograph, a 150 W xenon light source and a silicon charge coupled device. Each compound was dissolved in DMSO and diluted to ensure an absorbance of 0.1 from the λmax of excitation forward. Each compound was then irradiated at the corresponding wavelength and the absolute quantum yield determined. The fluorescence spectra was also recorded (Fig. S3). For each compound, four independent experiments were performed.

HaCaT cells [4] = assay: Cellular photoactivation assay (white light or dark, Alamar Blue); type: cell-based, human
Procedure: A white light LED homemade device prototype has 96 LEDs appropriately arranged on a plate of 13 cm length × 8 cm width, with a distance from the microplate surface of 8 cm. The prototype has an irradiance of 21 W m^−2 and a wavelength range of 408–707 nm (Fig. S4).
For the cellular photoactivation assays, the white light source of 21 W m^−2 was used. Briefly, cells were seed at a density of 4 × 10^4 cells/mL onto 96 –well plates and after 24 h the compounds were added to the plates in different concentrations (6.25–100 μM) and incubated for a period of 4 h at 37 °C in an atmosphere of 5% CO2 and in the presence of DMEM with 2% FBS. After this period, the medium with the compounds was removed and fresh medium (DMEM with 2% FBS without phenol red (DMEM_2% FBS_w/o_PR) was added to cells. Following this procedure, cells were submitted to light irradiation, the selected light source at a height of 8 cm, in a chamber designed to ensure the same light quantity for each well during the treatment. Cells were irradiated for 10 min at an intensity of 50%, at room temperature (making a total energy exposition of 6.6 J cm^−2). The dark treatment was prepared by placing the plates for 10 min in a dark box at room temperature. After this, the 96 well plates were placed in an incubator at 37 °C in an atmosphere of 5% CO2 for 24 h. Then, to determine cell survival the Alamar Blue assay was performed as follows: after the 24 h, 20 μL of a solution of Resazurin (0.15 mg mL^−1 in PBS filtered in 0.22 μm filters) were added to each well (making a total volume of 120 μL per well), and the plates were incubated between 4–6 h (until the development of visible color change from violet to pink). The fluorescence intensity of each well was then determined at 560/590 nm (ex/em) (FlexStation 3 Multi-Mode Microplate Reader).

HaCaT cells [5] = assay: Reactive oxygen species production (DCF-DA); type: cell-based, human; settings: 25 μM, 6.6 J cm^−2, versus control cells
Procedure: Cells reactive oxygen species (ROS) production was evaluated following the standard method. Briefly, cells were seed at a density of 4 × 10^4 cells/mL onto 96 well plates and after 24 h the compounds were added at 25 μM (non-toxic concentration) and the same previous procedure for the photoactivation assays was followed. After that, cells were washed twice in Hank’s Buffered Saline Solution (HBSS) and incubated with 100 μL of 50 μM 2′,7′-dichlorodihydrofluorescein diacetate (DCF‐DA) for 30 min in the same previous conditions. For positive control, cells were treated with 100 μM H2O2 for 30 min prior to the addition of DCF-DA. Cells were then washed twice with HBSS and incubated with fresh DMEM medium for 24 h. After this period, the fluorescence intensity at […] (ex/em) was determined in a FlexStation 3 Multi-Mode Microplate Reader.

[6] = MTT cytotoxicity assay, fibroblasts; type: cell-based; settings: human, HFF-1 cells (fibroblasts), HFF-1, proliferation condition, dark
Procedure: (§1) The cytotoxicity of amino-based flavylium compounds to HFF-1 (ATCC Number: SCRC-1041) and HaCaT cells was evaluated using the standard MTT assay. Briefly, cells were seeded at a density of 8 × 10^5 and 4 × 10^4 cells/mL, respectively, in 96-well plate and incubated at 37 °C in a 5% CO2 atmosphere. Cells were allowed to grow for 24 h or until reaching monolayer confluency, and serially diluted compound solutions (6.3–100 µM) were added to the plate wells. The stock solutions of each compound were prepared at 200 mM in DMSO, the maximum % of DMSO in the cells was 0.05%. Then, cells were incubated for 48 h at 37 °C, after which the plate wells were washed once with phosphate buffered saline (PBS, Sigma-Aldrich), followed by addition of a 0.45 mg/mL MTT solution to each well. Crystals were allowed to form for 1.5 h. The reaction was stopped by rejecting the medium followed by the addition of 100 µL of DMSO (Sigma-Aldrich). The absorbance was read at 570 nm in FlexStation 3 Multi-Mode Microplate Reader (Molecular Devices, California, USA).

[7] = MTT cytotoxicity assay, keratinocytes; type: cell-based; settings: human, HaCaT cells (keratinocytes), dark
Procedure: as §1

| Molar absorption coefficient ɛ at 630 nm ([2]; DMSO) | Molar absorption coefficient ɛ at 630 nm ([2]; Ethanol) | Molar absorption coefficient ɛ at 630 nm ([2]; Methanol) | Quantum yield of fluorescence (Φf), mean ± SD [3] | Structure (SMILES) | ^1O2 production yield, times higher (positive control) ([1]; 10 μM, same amount of light irradiation) | ^1O2 production [1] | Dark cytotoxicity to HaCaT cells (in words) (HaCaT cells [4]; 4 h incubation, 6.25–100 μM applied, dark) | Photoactivation, dark versus white light (in words) (HaCaT cells [4]; 4 h incubation, 6.25–100 μM applied, white light 6.6 J cm^−2) | ROS production upon white light irradiation (in words) (HaCaT cells [5]) | IC50 at 48 h [6] [µM] | IC50 at 48 h ([7]; monolayer confluence) [µM] | IC50 at 48 h ([7]; proliferation) [µM] | Reduction of cell survival upon light irradiation (HaCaT cells [4]; applied concentration 6.25 and 12.5 μΜ) | Cell survival (HaCaT cells [4]; either in the presence or absence of light, highest concentration tested) [%] |
| --- | --- | --- | --- | --- | --- | --- | --- | --- | --- | --- | --- | --- | --- | --- |
|  |  |  |  | CN(C)c1ccc2nc3ccc(=[N+](C)C)cc-3sc2c1 [methylene blue, Methylene Blue, reference compound] | about 5 fold |  |  |  |  |  |  |  |  |  |
| 15,224 M^−1 cm^−1 | 16,422 M^−1 cm^−1 | 15,224 M^−1 cm^−1 | undetectable | CN(C)c1ccc(/C=C/c2ccc3c(O)cc(O)cc3[o+]2)cc1 [5,7OHst4′NMe2, 5,7-dihydroxy-2-(4′-dimethylaminostyryl)-benzopyrylium] |  | non-significant enhancement | did not present significant effects | not photoactivated | did not modulate the production of ROS |  |  |  |  |  |
|  |  |  | undetectable | CN(C)c1ccc(-c2ccc3c(O)cccc3[o+]2)cc1 [5OH4′NMe2, 5-hydroxy-4′-(dimethylamino)-benzopyrylium] |  | non-significant enhancement |  |  | significantly increased | 47.25 ± 0.21 | 47.3 ± 0.3 | 14.9 ± 0.1 | less than 20% | 40 |
